# Laboratory results from PubChem BioAssay (NCI).
#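 These data come from cells grown in 96-well plates and exposed to compound for 48 hours at five concentrations. TGI: concentration producing complete growth inhibition.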
# Key:
# Experiment in all cases: NCI tumour cell line growth inhibition, 48 h
# 786-0 renal = tested on: 786-0 renal
# A498 renal = tested on: A498 renal
# A549 NSCLC = tested on: A549 NSCLC
# ACHN renal = tested on: ACHN renal
# BT-549 breast = tested on: BT-549 breast
# CAKI-1 renal = tested on: CAKI-1 renal
# CCRF-CEM leukemia = tested on: CCRF-CEM leukemia
# COLO 205 colon = tested on: COLO 205 colon
# DU-145 prostate = tested on: DU-145 prostate
# EKVX NSCLC = tested on: EKVX NSCLC
# HCC-2998 colon = tested on: HCC-2998 colon
# HCT-116 colon = tested on: HCT-116 colon
# HCT-15 colon = tested on: HCT-15 colon
# HL-60(TB) leukemia = tested on: HL-60(TB) leukemia
# HOP-62 NSCLC = tested on: HOP-62 NSCLC
# HOP-92 NSCLC = tested on: HOP-92 NSCLC
# HS 578T breast = tested on: HS 578T breast
# HT29 colon = tested on: HT29 colon
# IGROV1 ovarian = tested on: IGROV1 ovarian
# K-562 leukemia = tested on: K-562 leukemia
# KM12 colon = tested on: KM12 colon
# LOX IMVI melanoma = tested on: LOX IMVI melanoma
# M14 melanoma = tested on: M14 melanoma
# MALME-3M melanoma = tested on: MALME-3M melanoma
# MCF7 breast = tested on: MCF7 breast
# MDA-MB-231 breast = tested on: MDA-MB-231 breast
# MDA-MB-435 = tested on: MDA-MB-435
# MDA-N = tested on: MDA-N
# MOLT-4 leukemia = tested on: MOLT-4 leukemia
# NCI-H226 lung = tested on: NCI-H226 lung
# NCI-H23 lung = tested on: NCI-H23 lung
# NCI-H460 lung = tested on: NCI-H460 lung
# NCI-H522 lung = tested on: NCI-H522 lung
# NCI/ADR-RES ovarian = tested on: NCI/ADR-RES ovarian
# OVCAR-3 ovarian = tested on: OVCAR-3 ovarian
# OVCAR-4 ovarian = tested on: OVCAR-4 ovarian
# OVCAR-5 ovarian = tested on: OVCAR-5 ovarian
# OVCAR-8 ovarian = tested on: OVCAR-8 ovarian
# PC-3 prostate = tested on: PC-3 prostate
# RPMI-8226 leukemia = tested on: RPMI-8226 leukemia
# RXF 393 renal = tested on: RXF 393 renal
# SF-268 CNS = tested on: SF-268 CNS
# SF-295 CNS = tested on: SF-295 CNS
# SF-539 CNS = tested on: SF-539 CNS
# SK-MEL-2 melanoma = tested on: SK-MEL-2 melanoma
# SK-MEL-28 melanoma = tested on: SK-MEL-28 melanoma
# SK-MEL-5 melanoma = tested on: SK-MEL-5 melanoma
# SK-OV-3 ovarian = tested on: SK-OV-3 ovarian
# SN12C renal = tested on: SN12C renal
# SNB-19 CNS = tested on: SNB-19 CNS
# SNB-75 CNS = tested on: SNB-75 CNS
# SR leukemia = tested on: SR leukemia
# SW-620 colon = tested on: SW-620 colon
# T-47D breast = tested on: T-47D breast
# TK-10 renal = tested on: TK-10 renal
# U251 CNS = tested on: U251 CNS
# UACC-257 melanoma = tested on: UACC-257 melanoma
# UACC-62 melanoma = tested on: UACC-62 melanoma
# UO-31 renal = tested on: UO-31 renal
compound,measurement,setting,value
Cc1cc2c(C(C)C)c(O)c(O)c(C=NCC3CCCN4CCCCC34)c2cc1-c1cc2c(C=NCC3CCCN4CCCCC34)c(O)c(O)c(C(C)C)c2cc1C (stereo not drawn),TGI,786-0 renal,> 67.9 µM
same,TGI,A498 renal,> 61.7 µM
same,TGI,A549 NSCLC,> 75.1 µM
same,TGI,ACHN renal,17.9 µM
same,TGI,BT-549 breast,36.4 µM
same,TGI,CAKI-1 renal,14.6 µM
same,TGI,CCRF-CEM leukemia,7.75 µM
same,TGI,COLO 205 colon,12.3 µM
same,TGI,DU-145 prostate,> 64.3 µM
same,TGI,EKVX NSCLC,31.8 µM
same,TGI,HCC-2998 colon,46.3 µM
same,TGI,HCT-116 colon,> 100 µM
same,TGI,HCT-15 colon,41.3 µM
same,TGI,HL-60(TB) leukemia,9.62 µM
same,TGI,HOP-62 NSCLC,> 38.7 µM
same,TGI,HOP-92 NSCLC,> 100 µM
same,TGI,HS 578T breast,54.5 µM
same,TGI,HT29 colon,13.3 µM
same,TGI,IGROV1 ovarian,21.6 µM
same,TGI,K-562 leukemia,38.2 µM
same,TGI,KM12 colon,17.7 µM
same,TGI,LOX IMVI melanoma,> 49.1 µM
same,TGI,M14 melanoma,33.9 µM
same,TGI,MALME-3M melanoma,30.2 µM
same,TGI,MCF7 breast,37 µM
same,TGI,MDA-MB-231 breast,14.7 µM
same,TGI,MDA-MB-435,25.8 µM
same,TGI,MDA-N,20.9 µM
same,TGI,MOLT-4 leukemia,20 µM
same,TGI,NCI-H226 lung,43.2 µM
same,TGI,NCI-H23 lung,27.1 µM
same,TGI,NCI-H460 lung,38.7 µM
same,TGI,NCI-H522 lung,11.3 µM
same,TGI,NCI/ADR-RES ovarian,20.6 µM
same,TGI,OVCAR-3 ovarian,29 µM
same,TGI,OVCAR-4 ovarian,43.3 µM
same,TGI,OVCAR-5 ovarian,38.8 µM
same,TGI,OVCAR-8 ovarian,19 µM
same,TGI,PC-3 prostate,26.3 µM
same,TGI,RPMI-8226 leukemia,58.5 µM
same,TGI,RXF 393 renal,22.6 µM
same,TGI,SF-268 CNS,19.1 µM
same,TGI,SF-295 CNS,25.9 µM
same,TGI,SF-539 CNS,85.9 µM
same,TGI,SK-MEL-2 melanoma,31.5 µM
same,TGI,SK-MEL-28 melanoma,39.5 µM
same,TGI,SK-MEL-5 melanoma,15.5 µM
same,TGI,SK-OV-3 ovarian,18.1 µM
same,TGI,SN12C renal,17.1 µM
same,TGI,SNB-19 CNS,69.9 µM
same,TGI,SNB-75 CNS,31.3 µM
same,TGI,SR leukemia,> 100 µM
same,TGI,SW-620 colon,> 56.1 µM
same,TGI,T-47D breast,> 31 µM
same,TGI,TK-10 renal,32.5 µM
same,TGI,U251 CNS,21.5 µM
same,TGI,UACC-257 melanoma,51.9 µM
same,TGI,UACC-62 melanoma,39.3 µM
same,TGI,UO-31 renal,> 45.5 µM
C=C(CC[C@@H](C)[C@H]1CC[C@H]2[C@@H]3C[C@@H](O)[C@H]4C[C@@H](O)CC[C@]4(CO)[C@H]3CC[C@]12C)C(C)C,TGI,786-0 renal,11.1 µM
same,TGI,A498 renal,13.3 µM
same,TGI,A549 NSCLC,11.1 µM
same,TGI,ACHN renal,12 µM
same,TGI,BT-549 breast,15 µM
same,TGI,CAKI-1 renal,11.8 µM
same,TGI,CCRF-CEM leukemia,10.5 µM
same,TGI,COLO 205 colon,15.8 µM
same,TGI,DU-145 prostate,10 µM
same,TGI,EKVX NSCLC,4.34 µM
same,TGI,HCC-2998 colon,6.33 µM
same,TGI,HCT-116 colon,8.91 µM
same,TGI,HCT-15 colon,8.27 µM
same,TGI,HL-60(TB) leukemia,14.9 µM
same,TGI,HOP-62 NSCLC,14.8 µM
same,TGI,HOP-92 NSCLC,15.5 µM
same,TGI,HS 578T breast,12.4 µM
same,TGI,HT29 colon,7.91 µM
same,TGI,IGROV1 ovarian,12.6 µM
same,TGI,K-562 leukemia,6.92 µM
same,TGI,KM12 colon,8.01 µM
same,TGI,LOX IMVI melanoma,9 µM
same,TGI,M14 melanoma,14.7 µM
same,TGI,MALME-3M melanoma,12.8 µM
same,TGI,MCF7 breast,9.53 µM
same,TGI,MDA-MB-231 breast,10.4 µM
same,TGI,MDA-MB-435,14.2 µM
same,TGI,MDA-N,15.6 µM
same,TGI,MOLT-4 leukemia,10.8 µM
same,TGI,NCI-H226 lung,18.4 µM
same,TGI,NCI-H23 lung,12 µM
same,TGI,NCI-H460 lung,7.14 µM
same,TGI,NCI-H522 lung,11.1 µM
same,TGI,NCI/ADR-RES ovarian,12.2 µM
same,TGI,OVCAR-3 ovarian,8.77 µM
same,TGI,OVCAR-4 ovarian,13.4 µM
same,TGI,OVCAR-5 ovarian,13.3 µM
same,TGI,OVCAR-8 ovarian,12.5 µM
same,TGI,PC-3 prostate,10.8 µM
same,TGI,RPMI-8226 leukemia,11.6 µM
same,TGI,RXF 393 renal,8.42 µM
same,TGI,SF-268 CNS,12.6 µM
same,TGI,SF-295 CNS,17.1 µM
same,TGI,SF-539 CNS,20.6 µM
same,TGI,SK-MEL-2 melanoma,13.9 µM
same,TGI,SK-MEL-28 melanoma,10.3 µM
same,TGI,SK-MEL-5 melanoma,15.9 µM
same,TGI,SK-OV-3 ovarian,16.3 µM
same,TGI,SN12C renal,12.6 µM
same,TGI,SNB-19 CNS,15.3 µM
same,TGI,SNB-75 CNS,15.1 µM
same,TGI,SR leukemia,9.77 µM
same,TGI,SW-620 colon,16.5 µM
same,TGI,T-47D breast,8.47 µM
same,TGI,TK-10 renal,5.47 µM
same,TGI,U251 CNS,13 µM
same,TGI,UACC-257 melanoma,14.8 µM
same,TGI,UACC-62 melanoma,15 µM
same,TGI,UO-31 renal,11.1 µM
